According to patent US6531292B1, “Genes and proteins controlling cholesterol synthesis” (The Regents of the University of California, priority 1995, dated 2003):
Where “and” joins values, the source holds several entries; their conditions need not be identical. Equal values may be shown once. Square brackets hold non-standard residues; d marks the D form. Peptide text beside a SMILES is read from it. Nle = CCCC[C@H](N)C(=O)O

Assays:
[1] = system: mammalian HMG-R; conditions: mammalian cells, previous studies; cited from earlier work
[2] = system: proteasome; conditions: Jensen et al. 1995; cited from earlier work
[3] = system: hrd mutant yeast strains; test: Canavanine sensitivity of hrd mutant strains on solid medium; format: cell-based; conditions: 1.5 μg/ml canavanine, 30° C., one week; versus isogenic parent strain
Procedure: FIG. 7. Proteasomal phenotypes associate with the hrd2-1 mutant. A) Canavanine sensitivity. Liquid cultures of strains with the indicated mutations, but otherwise isogenic, were spotted onto supplemented minimal medium ([…] of ˜0.5 OD) with or without 1.5 μg/ml canavanine as indicated, and allowed to grow at 30° C. for a week. B) Global ubiquitination. Lysates of the same strains were immunoblotted with affinity-purified anti-ubiquitin antibody to survey the degree of ubiquitination of cellular proteins. The line indicates the position of an 80 kD marker. Equal amounts of protein were loaded in each lane and the transfer efficiency from each lane was identical, as judged by India ink staining. The average increase in the amount of ubiquitin conjugates in the hrd2-1 mutant was approximately threefold over the amount in other strains. C) Complementation of the hrd2-1 mutant by the human TRAP-2 coding region. Strain RHY402 (hrd2-1, Ura^−) was transformed with parent vector pRH98-1, with a centromere plasmid containing the HRD2 gene (pRH482) or with a plasmid that expressed the TRAP-2 coding region from the GAPDH promoter (pRH492). These transformants are noted “vector, HRD2, and TRAP-2”, respectively. Each strain was then streaked on solid medium with 0 (top) or 200 μg/ml (bottom) and allowed to grow at 37° C. […]

[4] = molecular target: T1, Hmg2p (Saccharomyces cerevisiae, UniProt P12684); test: Hmg2p degradation by cycloheximide chase and stationary chase with immunoblotting; format: cell-based, yeast; conditions: small dose of lovastatin (50 μg/ml) added to cultures
T1 construct: Note the lowered mobility of the 6myc-Hmg2p protein as compare to the native Hmg2p; expressed in transfected cells; host or cells: S. cerevisiae strain RHY183 (hmg1 and hmg2 disrupted; single integrated HMG2 coding region under the GAPDH promoter)
T1 sequence (P12684 1-1045): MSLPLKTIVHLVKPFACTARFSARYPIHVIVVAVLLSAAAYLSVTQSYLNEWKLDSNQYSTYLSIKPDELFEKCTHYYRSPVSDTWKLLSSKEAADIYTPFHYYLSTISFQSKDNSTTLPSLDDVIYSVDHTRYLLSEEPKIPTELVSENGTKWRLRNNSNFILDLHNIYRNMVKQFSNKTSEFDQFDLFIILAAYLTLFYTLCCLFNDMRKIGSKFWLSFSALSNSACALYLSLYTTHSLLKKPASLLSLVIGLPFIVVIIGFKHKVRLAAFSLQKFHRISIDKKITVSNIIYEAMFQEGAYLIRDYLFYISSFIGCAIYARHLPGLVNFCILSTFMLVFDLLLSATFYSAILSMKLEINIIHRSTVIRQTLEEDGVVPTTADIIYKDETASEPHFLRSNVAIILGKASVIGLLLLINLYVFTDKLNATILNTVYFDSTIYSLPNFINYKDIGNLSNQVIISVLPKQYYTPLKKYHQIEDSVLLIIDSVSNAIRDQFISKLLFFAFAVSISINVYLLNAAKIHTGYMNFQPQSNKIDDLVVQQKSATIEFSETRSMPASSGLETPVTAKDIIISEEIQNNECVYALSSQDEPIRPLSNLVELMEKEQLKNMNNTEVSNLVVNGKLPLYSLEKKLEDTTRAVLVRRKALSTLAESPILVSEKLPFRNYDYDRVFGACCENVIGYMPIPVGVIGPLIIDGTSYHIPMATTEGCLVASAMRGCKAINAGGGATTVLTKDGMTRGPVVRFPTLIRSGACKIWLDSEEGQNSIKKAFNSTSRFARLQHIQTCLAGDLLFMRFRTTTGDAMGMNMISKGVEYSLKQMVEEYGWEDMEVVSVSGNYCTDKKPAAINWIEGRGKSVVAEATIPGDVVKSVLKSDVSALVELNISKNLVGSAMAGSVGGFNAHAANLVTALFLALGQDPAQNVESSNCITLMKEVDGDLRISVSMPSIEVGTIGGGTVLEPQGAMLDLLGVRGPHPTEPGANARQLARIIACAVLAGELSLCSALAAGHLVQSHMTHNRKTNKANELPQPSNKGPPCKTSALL
Source text: (§1) FIG. 1. 6myc-Hmg2p: an unregulated variant of Hmg2p. A) schematic diagram of the unregulated 6myc-Hmg2p. […] The tagged protein was still capable of catalyzing the reduction of 3-hydroxy-3-methyl glutaryl CoA (HMG-CoA) to mevalonate (MEV), an essential intermediate of cholesterol biosynthesis. B) The degradation of 6myc-Hmg2p was not regulated by the mevalonate pathway. Cells expressing 6myc-Hmg2p (RHY244) or Hmg2p (RHY183) were examined for degradation of each protein by addition of cycloheximide at time zero and subsequent immunoblotting, as described by Hampton and Rine (J Cell Biol 125: 299-312, 1994). In the indicated samples, 50 μg/ml of lovastatin was added along with the cycloheximide at t=0. The 6myc-Hmg2planes (left panel) were immunoblotted using the 9E10 anti-myc antibody, and the Hmg2p lanes (right panel) were immunoblotted with affinity purified anti-Hmg1p protein. Each lane contained lysate from ˜0.2 O.D.600 units of cells. C) Test of 6myc-Hmg2p degradation by “stationary chase.” Log phase (OD600˜0.5) cultures of the strains used in Panel B were allowed to grow for an additional 15 hours at 30° C., and then subjected to lysis and immunoblotting to evaluate degradation of the expressed reductase (Hampton et al., Proc. Natl. Acad. Sci. USA. 93: 828-833, 1996). […]

[5] = system: strain expressing Hmg2p (RHY183); test: Lovastatin sensitivity (growth, plating efficiency) of strain expressing Hmg2p; format: cell-based, yeast
[6] = system: 6myc-Hmg2p; test: 6myc-Hmg2p degradation by cycloheximide chase and stationary chase with immunoblotting; format: cell-based, yeast; conditions: small dose of lovastatin (50 μg/ml) added to cultures
Source text: as §1

[7] = system: strain expressing 6myc-Hmg2p (RHY244); test: Lovastatin sensitivity (growth, plating efficiency) of strain expressing 6myc-Hmg2p; format: cell-based, yeast; conditions: liquid medium, FIG. 1d

## CCCC[C@@H](C=O)NC(=O)[C@H](CC(C)C)NC(=O)[C@H](CC(C)C)NC(C)=O [ALLN] (Ac-Leu-Leu-[Nle]-aldehyde)
[1]
  degradation of mammalian HMG-R: inhibited
[2]
  inhibition of the proteasome: potent inhibitor

## N=C(N)NOCC[C@H](N)C(=O)O [canavanine]
[3]
  sensitivity of hrd1 or hrd3 alleles to canavanine: no more sensitive
  sensitivity of hrd2 mutants to canavanine: heightened sensitivity

## CC[C@H](C)C(=O)O[C@H]1C[C@@H](C)C=C2C=C[C@H](C)[C@H](CC[C@@H]3C[C@@H](O)CC(=O)O3)[C@H]21 [lovastatin]
[4]
  effect on degradation of wild-type Hmg2p: dramatically stabilized
[5]; hmg1::LYS2 hmg2::HIS3 strain with single integrated HMG2 driven by GAPDH promoter, dose-dependent
  growth of strain: blocked
[5]; non-mutagenized cells expressing wild-type Hmg2p, solid lovastatin-containing medium
  plating efficiency of surviving colonies on lovastatin medium: 0.1-1% and ~1%
[6]
  effect on degradation of 6myc-Hmg2p: unaffected
[7]
  lovastatin sensitivity relative to isogenic strain expressing HMG2: more sensitive
